Assays:
Assay type in all cases: cell-based, Enterococcus faecium
[1] = test system: E. faecium D344SRF pCWR624Δpbp5_pbp5_V5; assay: Disk diffusion assay, pbp5_V5; details: strain pbp5_V5 (Q396A_E397A); 37 °C, 24 h; n=3
Method: (§1) The synthetic genes were purchased from GeneWiz (South Plainfield, NJ). The ribosome binding site sequence AGGAGG (Shine-Dalgarno), and a string of five A’s followed by the sequence […], that corresponds to the first 15 bp found in pbp5 from E. faecium C68 were added upstream of the START codon. The terminator sequence […] was added downstream of the STOP codon. BamHI restriction sites were added to the flanking 5′ and 3′ ends. The synthetic genes were inserted into the vector pCWR624Δpbp5. This vector was derived from pCWR624[10], in which the pbp5 gene from D366 was excised by digestion with BamHI followed by re-ligation of the vector, allowing subsequent insertion of modified synthetic pbp5s into the BamHI site downstream of ftsWEfm and psr from E. faecium C68[10]. The synthetic genes were inserted in a BamHI site located downstream of psr. The proper orientation was confirmed by PCR amplification using the forward primer OR_pbp5_FOR_1 (5′-[…]-3′) and the reverse primer OR_pbp5_REV_1 (5′-[…]-3′). Plasmids were sequence verified for the specific binding site mutations. The resulting constructions were electroporated into the natural pbp5(-) mutant E. faecium D344SRF with a selection on brain heart infusion agar (BHI) plates containing kanamycin (1500 µg/ml).
(§2) E. faecium strains were streaked fresh from −80 °C stored glycerol stocks onto brain heart infusion (BHI) agar plates and incubated for 18 h at 37 °C. Strains harboring the plasmid derivatives were grown under antibiotic pressure on agar plates containing kanamycin at 1500 µg/ml. A single colony was inoculated into BHI or BHI-kanamycin (1500 µg/ml) for overnight cultures (18 h).
(§3) Antibiotic disks used were manufactured by BD BBL^TM. Disk diffusion assays were performed according to the Clinical and Laboratory Standards Institute (CLSI) guidance. Overnight cultures were inoculated into 3 ml of BHI or BHI-kanamycin (1500 µg/ml) broth with a dilution of 1:100 and incubated until an OD600 of ~0.5 was reached. […] The plates were incubated at 37 °C and the zones of inhibition were measured after 24 h. […]

[2] = test system: E. faecium D344SRF pCWR624Δpbp5_pbp5_V6; assay: MIC by broth microdilution, pbp5_V6; details: strain pbp5_V6 (E284A_E291A_S294A_N295A); 37 °C, 20 h; n=3
Method: as §1, §2
(§4) MIC determination was performed using a standard broth microdilution technique in duplicate from independent cultures. Overnight cultures were inoculated into 3 ml of BHI or BHI-kanamycin (1500 µg/ml) broth in a dilution of 1:100 and incubated until an OD600 of ~0.5 was reached. Cultures were diluted 1:1000 and inoculated into the 96-well plates with the corresponding antibiotics to be tested. Plates were incubated at 37 °C for 20 h and read by eye. […]

[3] = test system: E. faecium D344SRF pCWR624Δpbp5_pbp5_V4; assay: Disk diffusion assay, pbp5_V4; details: strain pbp5_V4 (D530A_L533A_W457A); 37 °C, 24 h; n=3
Method: as §1, §2, §3

[4] = test system: E. faecium D344SRF, Wild Type; details: strain Wild Type; disks Ampicillin 10 μg, Penicillin 10 U, Ceftriaxone 30 μg; BHI agar, 37 °C, 24 h; n=3
Method: as §2
Antibiotic disks used were manufactured by BD BBL^TM. Disk diffusion assays were performed according to the Clinical and Laboratory Standards Institute (CLSI) guidance. Overnight cultures were inoculated into 3 ml of BHI or BHI-kanamycin (1500 µg/ml) broth with a dilution of 1:100 and incubated until an OD600 of ~0.5 was reached. The OD600 was adjusted to 0.01 to get the inoculum suspension. […] The plates were incubated at 37 °C and the zones of inhibition were measured after 24 h. All experiments were conducted in triplicate.

[5] = test system: E. faecium D344SRF pCWR624Δpbp5_pbp5_V3; assay: MIC by broth microdilution, pbp5_V3; details: strain pbp5_V3 (loop 625-631); 37 °C, 20 h; n=3
Method: as §1, §2, §4

[6] = test system: E. faecium D344SRF pCWR624Δpbp5_pbp5_V1; assay: MIC by broth microdilution, pbp5_V1; details: strain pbp5_V1 (N523A); 37 °C, 20 h; n=3
Method: as §1, §2, §4

[7] = test system: E. faecium D344SRF pCWR624Δpbp5_pbp5_V1; assay: Disk diffusion assay, pbp5_V1; details: strain pbp5_V1 (N523A); 37 °C, 24 h; n=3
Method: as §1, §2, §3

[8] = test system: E. faecium D344SRF pCWR624Δpbp5_pbp5_V2; assay: Disk diffusion assay, pbp5_V2; details: strain pbp5_V2 (N523A_Q627A); 37 °C, 24 h; n=3
Method: as §1, §2, §3

[9] = test system: E. faecium D344SRF pCWR624Δpbp5 (empty plasmid); assay: MIC by broth microdilution, pCWR624Δpbp5; details: strain pCWR624Δpbp5; 37 °C, 20 h; n=3
Method: as §1, §2, §4

[10] = test system: E. faecium D344SRF pCWR624Δpbp5_pbp5_V4; assay: MIC by broth microdilution, pbp5_V4; details: strain pbp5_V4 (D530A_L533A_W457A); 37 °C, 20 h; n=3
Method: as §1, with “The resulting constructions were electroporated into the natural pbp5(-) mutant E. faecium D344SRF with a selection on brain heart infusion agar (BHI) plates containing kanamycin (1500 µg/ml).” left out
MIC determination was performed using a standard broth microdilution technique in duplicate from independent cultures. […] Plates were incubated at 37 °C for 20 h and read by eye. […]

[11] = test system: E. faecium D344SRF pCWR624Δpbp5_pbp5_V5; assay: MIC by broth microdilution, pbp5_V5; details: strain pbp5_V5 (Q396A_E397A); 37 °C, 20 h; n=3
Method: as §1, §2, §4

[12] = test system: E. faecium D344SRF, Wild Type; assay: MIC by broth microdilution, Wild Type; details: strain Wild Type; BHI broth microdilution, 37 °C, 20 h, read by eye; n=3
Method: as §2
MIC determination was performed using a standard broth microdilution technique in duplicate from independent cultures. Overnight cultures were inoculated into 3 ml of BHI or BHI-kanamycin (1500 µg/ml) broth in a dilution of 1:100 and incubated until an OD600 of ~0.5 was reached. Cultures were diluted 1:1000 and inoculated into the 96-well plates with the corresponding antibiotics to be tested. Plates were incubated at 37 °C for 20 h and read by eye. The MICs were defined as the lowest antibiotic concentration that inhibited growth.

[13] = test system: E. faecium D344SRF pCWR624Δpbp5_pbp5_V3; assay: Disk diffusion assay, pbp5_V3; details: strain pbp5_V3 (loop 625-631); 37 °C, 24 h; n=3
Method: as §1, §2, §3

[14] = test system: E. faecium D344SRF pCWR624Δpbp5 (empty plasmid); assay: Disk diffusion assay, pCWR624Δpbp5; details: strain pCWR624Δpbp5; 37 °C, 24 h; n=3
Method: as §1, §2, §3

[15] = test system: E. faecium D344SRF pCWR624Δpbp5_pbp5_V6; assay: Disk diffusion assay, pbp5_V6; details: strain pbp5_V6 (E284A_E291A_S294A_N295A); 37 °C, 24 h; n=3
Method: as §1, §2, §3

[16] = test system: E. faecium D344SRF pCWR624 (PBP5 plasmid); assay: MIC by broth microdilution, pCWR624; details: strain pCWR624; 37 °C, 20 h; n=3
Method: as §1, §2, §4

[17] = test system: E. faecium D344SRF pCWR624Δpbp5_pbp5_V2; assay: MIC by broth microdilution, pbp5_V2; details: strain pbp5_V2 (N523A_Q627A); 37 °C, 20 h; n=3
Method: as §2

[18] = test system: E. faecium D344SRF pCWR624 (PBP5 plasmid); assay: Disk diffusion assay, pCWR624; details: strain pCWR624; 37 °C, 24 h; n=3
Method: as §1, §2, §3

Compound | Zone Size (mm) [Range] [1] | MIC (µg/ml) [Range] [2] | Zone Size (mm) [Range] [3] | Zone Size (mm) [Range] [4] | MIC (µg/ml) [Range] [5] | MIC (µg/ml) [Range] [6] | Zone Size (mm) [Range] [7] | Zone Size (mm) [Range] [8] | MIC (µg/ml) [Range] [9] | MIC (µg/ml) [Range] [10] | MIC (µg/ml) [Range] [11] | MIC (µg/ml) [Range] [12] | Zone Size (mm) [Range] [13] | Zone Size (mm) [Range] [14] | Zone Size (mm) [Range] [15] | MIC (µg/ml) [Range] [16] | MIC (µg/ml) [Range] [17] | Zone Size (mm) [Range] [18]
CC1(C)S[C@@H]2[C@H](NC(=O)Cc3ccccc3)C(=O)N2[C@H]1C(=O)O [Penicillin, penicillin G] | 0 [0] mm | 200 [200] µg/ml | 32 [30-32] mm | 28 [28-32] mm | 0.39 [0.39] µg/ml | 200 [200] µg/ml | 0 [0] mm | 26 [26-28] mm | 0.39 [0.39-1.56] µg/ml | 0.39 [0.39] µg/ml | 200 [200] µg/ml | 0.39 [0.39-0.78] µg/ml | 32 [30-32] mm | 28 [28-32] mm | 0 [0] mm | > 200 [>200] µg/ml | 12.5 [12.5-25] µg/ml | 0 [0] mm
CC1(C)S[C@@H]2[C@H](NC(=O)[C@H](N)c3ccccc3)C(=O)N2[C@H]1C(=O)O [Ampicillin] | 0 [0-10] mm | 100 [100] µg/ml | 32 [32] mm | 32 [30-32] mm | < 0.19 [<0.19-0.39] µg/ml | 100 [50-100] µg/ml | 16 [14-16] mm | 26 [26-28] mm | 0.78 [0.39-1.56] µg/ml | – | 100 [100] µg/ml | 0.39 [0.39-0.78] µg/ml | 32 [30-32] mm | 30 [30-32] mm | 0 [0-10] mm | 100 [100->200] µg/ml | – | 0 [0] mm

— article PMC12717099, “Peptidoglycan recruitment by a penicillin binding protein” (Nature Communications, 2025)
